Test system: NOMO1
Assay: cell viability relative to DMSO control; higher = less cytotoxic
Settings: 48 h
Outline: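 Library compounds in DMSO were pin-dosed into 1536-well plates (5 μl) holding NOMO1 or SEM (500 cells/well) or P12-Ichikawa (1000 cells/well) leukemia cells, across an 11-point threefold series of 47 μM to 0.79 nM. Each cell line had been adapted for at least four passages in each medium. CellTiter-Glo One luminescence was read after 48 h at 37°C. Viability is the per-plate percentage relative to DMSO wells, with cell-free wells as background.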

[1] = HPLM + 10% dialyzed FBS, 0.000781 µM
[2] = HPLM + 10% dialyzed FBS, 0.00234 µM
[3] = HPLM + 10% dialyzed FBS, 0.00702 µM
[4] = HPLM + 10% dialyzed FBS, 0.0211 µM
[5] = HPLM + 10% dialyzed FBS, 0.0632 µM
[6] = HPLM + 10% dialyzed FBS, 0.19 µM
[7] = HPLM + 10% dialyzed FBS, 0.569 µM
[8] = HPLM + 10% dialyzed FBS, 1.71 µM
[9] = HPLM + 10% dialyzed FBS, 5.12 µM
[10] = HPLM + 10% dialyzed FBS, 15.4 µM
[11] = HPLM + 10% dialyzed FBS, 46.1 µM
[12] = RPMI 5 mM glucose + 10% FBS, 0.000781 µM
[13] = RPMI 5 mM glucose + 10% FBS, 0.00234 µM
[14] = RPMI 5 mM glucose + 10% FBS, 0.00702 µM
[15] = RPMI 5 mM glucose + 10% FBS, 0.0211 µM
[16] = RPMI 5 mM glucose + 10% FBS, 0.0632 µM
[17] = RPMI 5 mM glucose + 10% FBS, 0.19 µM
[18] = RPMI 5 mM glucose + 10% FBS, 0.569 µM
[19] = RPMI 5 mM glucose + 10% FBS, 1.71 µM
[20] = RPMI 5 mM glucose + 10% FBS, 5.12 µM
[21] = RPMI 5 mM glucose + 10% FBS, 15.4 µM
[22] = RPMI 5 mM glucose + 10% FBS, 46.1 µM
[23] = RPMI 5 mM glucose + 10% dialyzed FBS, 0.000781 µM
[24] = RPMI 5 mM glucose + 10% dialyzed FBS, 0.00234 µM
[25] = RPMI 5 mM glucose + 10% dialyzed FBS, 0.00702 µM
[26] = RPMI 5 mM glucose + 10% dialyzed FBS, 0.0211 µM
[27] = RPMI 5 mM glucose + 10% dialyzed FBS, 0.0632 µM
[28] = RPMI 5 mM glucose + 10% dialyzed FBS, 0.19 µM
[29] = RPMI 5 mM glucose + 10% dialyzed FBS, 0.569 µM
[30] = RPMI 5 mM glucose + 10% dialyzed FBS, 1.71 µM
[31] = RPMI 5 mM glucose + 10% dialyzed FBS, 5.12 µM
[32] = RPMI 5 mM glucose + 10% dialyzed FBS, 15.4 µM
[33] = RPMI 5 mM glucose + 10% dialyzed FBS, 46.1 µM

SMILES	cell viability [1]	cell viability [2]	cell viability [3]	cell viability [4]	cell viability [5]	cell viability [6]	cell viability [7]	cell viability [8]	cell viability [9]	cell viability [10]	cell viability [11]	cell viability [12]	cell viability [13]	cell viability [14]	cell viability [15]	cell viability [16]	cell viability [17]	cell viability [18]	cell viability [19]	cell viability [20]	cell viability [21]	cell viability [22]	cell viability [23]	cell viability [24]	cell viability [25]	cell viability [26]	cell viability [27]	cell viability [28]	cell viability [29]	cell viability [30]	cell viability [31]	cell viability [32]	cell viability [33]
CNC(=O)c1cc(COc2nnc(Nc3ccc(Cl)cc3)c3ccoc23)ccn1	110%	110%	107%	103%	114%	131%	114%	107%	98.2%	91.1%	65.7%	114%	123%	106%	112%	110%	111%	109%	104%	92.6%	87.4%	87.5%	104%	111%	107%	101%	109%	102%	92.7%	96.4%	98.6%	101%	87.3%
OCCN1CCN(CCCN2c3ccccc3Sc3ccc(C(F)(F)F)cc32)CC1	123%	121%	107%	122%	111%	106%	98.8%	122%	73.2%	43%	27.7%	104%	104%	100%	121%	97.5%	110%	112%	105%	104%	25.7%	21.3%	91.6%	102%	108%	105%	105%	109%	110%	97.3%	109%	93.9%	24.8%
CN1C(=O)\C(=C/C2=C1N=C(NC3CCOCC3)N=C2)OC4=C(F)C=C(F)C=C4	105%	107%	105%	101%	119%	100%	91%	96.4%	58.2%	89.2%	16.4%	95.4%	83.2%	88.4%	90.6%	94.1%	87.2%	87.2%	95.2%	79.2%	84%	23.3%	86.7%	97.1%	104%	89.2%	83.5%	87.1%	95.5%	91.4%	76.7%	86.3%	26.4%
CNC(=O)c1cc(Oc2ccc(NC(=O)Nc3ccc(Cl)c(C(F)(F)F)c3)c(F)c2)ccn1	81.7%	96.4%	112%	107%	105%	104%	109%	105%	73.6%	77.1%	70.6%	86.5%	103%	94.8%	108%	97.1%	94.3%	95.6%	86.2%	85.4%	83.4%	69.7%	88%	94.8%	89.8%	92.4%	98.5%	109%	104%	97.9%	80.3%	82.2%	73.6%
CN1CCC(=C2c3ccccc3CCc3sccc32)CC1	88.8%	107%	111%	101%	126%	118%	103%	104%	121%	103%	44.5%	106%	109%	104%	106%	125%	105%	114%	107%	102%	108%	109%	100%	108%	113%	112%	112%	110%	116%	108%	106%	106%	65.7%
CCNC(=O)c1noc(-c2cc(C(C)C)c(O)cc2O)c1-c1ccc(CN2CCOCC2)cc1	91.6%	98.5%	109%	121%	76.2%	19.2%	24.1%	20%	20.9%	19.3%	21.2%	119%	108%	123%	116%	92.6%	13.5%	13.7%	15.4%	16%	16%	19.3%	107%	128%	114%	131%	96.4%	18.9%	17.3%	20.3%	17.4%	19.5%	22.4%
CCC1=C2CN3C(=O)\C4=C(/C=C3/C2=NC5=CC=C(O)C=C15)[C@@](O)(CC)C(=O)OC4	102%	96%	97.8%	60.5%	27.1%	25.9%	28.2%	23.4%	22.8%	24.8%	27%	93%	95.5%	92.5%	91.8%	18%	16.6%	20.7%	17.4%	19.6%	16.6%	16.1%	104%	90.1%	91.8%	69.8%	23.6%	22.5%	26.6%	21%	22.7%	22.2%	21.2%
Cc1cccc(Nc2nc(N[C@@H]3CCCC[C@@H]3N)ncc2C(N)=O)c1	119%	109%	119%	115%	115%	126%	110%	80.9%	77.4%	85.5%	83%	96.1%	106%	114%	117%	129%	109%	113%	99.1%	58.7%	56%	51.5%	101%	99.2%	109%	107%	119%	115%	108%	82.4%	55.5%	58.6%	56.8%
CN(C)c1ccccc1CN1CCCN(Cc2ccccc2N(C)C)C1c1ccncc1	93.7%	103%	91.6%	29.8%	113%	115%	108%	110%	99.9%	95.7%	65.7%	86.4%	82.7%	89.2%	18.6%	89.4%	88%	91.1%	81.3%	83.5%	89.7%	74.5%	77.3%	88.7%	90.6%	33.3%	93%	99.6%	93.7%	97.7%	95.4%	95%	65%
CCOC\1=C(/C(=O)NC2=CC=C(OC3=C(Cl)C(=NC=C3)N)C(=C2)F)C(=O)N(\C=C1)C4=CC=C(F)C=C4	86.9%	96.1%	99.3%	96.1%	102%	106%	91.6%	75.6%	75.1%	70.9%	39.1%	99.8%	102%	104%	90.4%	100%	96.6%	93.5%	88.7%	90%	92%	51.9%	111%	96.1%	92.2%	94.7%	95.3%	96.8%	89.1%	95.8%	100%	74.7%	52.7%
NC(=O)Cc1cccc(C(=O)c2ccccc2)c1N	79.5%	98.2%	122%	95.4%	108%	109%	110%	102%	108%	96.8%	102%	92.3%	101%	88.4%	91.2%	96.8%	88%	84.7%	98.8%	85.2%	93.7%	81.9%	97.4%	87.3%	96.1%	82.7%	101%	98.3%	91.6%	86.9%	95.6%	77.8%	88.1%
CC(C)(OCc1nn(Cc2ccccc2)c2ccccc12)C(=O)O	101%	99.8%	108%	116%	120%	84.4%	108%	114%	88.8%	85.2%	99.1%	84.4%	89.3%	98.8%	96%	93%	92.2%	99.9%	94.2%	89.8%	96.8%	83.4%	96.2%	91.5%	93.3%	108%	91.6%	106%	102%	83.6%	111%	95.4%	97.4%
CC1(C)NC(=O)N(c2ccc([N+](=O)[O-])c(C(F)(F)F)c2)C1=O	93.3%	91.4%	90%	107%	96.2%	96.9%	82%	92.8%	90%	90.1%	82.3%	92.9%	95.5%	90.9%	94.6%	92.8%	88.7%	90.1%	97.8%	86.3%	82.2%	76.4%	80.9%	87.7%	90.8%	86.6%	86.2%	82.2%	89.3%	85.9%	86.5%	77.5%	82.1%
COc1ccc(CC2SC(=O)NC2=O)cc1C(=O)NCc1ccc(C(F)(F)F)cc1 (stereo not given)	84.2%	83.3%	90.7%	86.1%	79.4%	85.5%	99.3%	99.2%	83%	82.1%	86.3%	75.9%	88.2%	94%	88%	81.7%	84.1%	90.1%	92%	81.4%	85.3%	92%	89.1%	89.1%	86.9%	96%	89%	93.4%	96.7%	86.3%	85.9%	79.3%	90.8%
CCC[S+](=O)([O-])Nc1ccc(F)c(C(=O)c2c[nH]c3ncc(-c4ccc(Cl)cc4)cc23)c1F	124%	112%	113%	116%	143%	132%	108%	99.7%	108%	116%	93.2%	101%	113%	112%	103%	117%	113%	106%	120%	112%	111%	98.9%	113%	116%	112%	129%	109%	112%	121%	107%	108%	112%	94.5%

Reference: the supplement of paper PMC11451515
